In test [1] the target is T1, bovine beta-2 adrenoceptor (Bos taurus, UniProt Q28044).
T1 construct: expressed in transfected cells; host or cells: CHO cells
As to the kind of experiment: cAMP assay in CHO cells transfected with the bovine beta-2 adrenoceptor (DiscoveRx Hit Hunter cAMP II). The format is cell-based. The settings on record: CHO cells transfected with bovine beta-2 adrenoceptor, 30 minutes incubation with compound. Here is the method:
(§1) CHO cells transfected with the bovine or porcine beta-2 adrenceptors were maintained in culture in DMEM/HAMS F12+10% FBS+2 mM glutamine+500 μg/ml geneticin (for the porcine receptor the medium was supplement with 1.5 mM HEPES) at 37° C. with a 5% CO2 atmosphere.
(§2) Cells were plated into 96 well viewplates in medium and incubated overnight at 37° C. with a 5% CO2 atmosphere. The cells were pre-incubated with 0.5 mM IBMX in PBS for 30 minutes prior to incubation with increasing concentrations of experimental compound (5×10^−12 to 10^−5M) for 30 minutes at 37° C. with a 5% CO2 atmosphere. At the end of the incubation time the compound was removed and the cells assayed for cAMP using the DiscoveRx Hit Hunter cAMP II™ assay kit.
(§3) Duplicate samples were run for each experimental compound and the data generated was analysed using EC50 analysis software in Graphpad Prism.
Background: cAMP levels reflect the balance of adenylyl cyclase and phosphodiesterase activity.

For test [2], the target named is T2, porcine beta-2 adrenoceptor (Sus scrofa, UniProt Q28997).
T2 construct: expressed in transfected cells; host or cells: CHO cells
The experiment in a line: cAMP assay in CHO cells transfected with the porcine beta-2 adrenoceptor (DiscoveRx Hit Hunter cAMP II). The test is classed as cell-based. The settings on record: CHO cells transfected with porcine beta-2 adrenoceptor, 30 minutes incubation with compound. On the procedure: as §1, §2, §3

Counter-ions that a name gives are not always drawn.

T2 sequence (Q28997 whole entry): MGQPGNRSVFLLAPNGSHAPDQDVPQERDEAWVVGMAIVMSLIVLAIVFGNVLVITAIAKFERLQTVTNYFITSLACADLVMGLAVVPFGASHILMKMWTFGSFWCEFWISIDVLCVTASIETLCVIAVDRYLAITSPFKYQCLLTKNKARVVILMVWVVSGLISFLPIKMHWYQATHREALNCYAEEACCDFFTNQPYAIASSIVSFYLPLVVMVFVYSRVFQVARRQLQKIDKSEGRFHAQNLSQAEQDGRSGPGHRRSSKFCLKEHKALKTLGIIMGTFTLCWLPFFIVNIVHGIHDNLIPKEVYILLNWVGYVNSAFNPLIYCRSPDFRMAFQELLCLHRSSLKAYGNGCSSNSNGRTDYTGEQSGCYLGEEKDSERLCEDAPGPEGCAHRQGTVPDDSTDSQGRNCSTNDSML
T1 sequence (Q28044 whole entry): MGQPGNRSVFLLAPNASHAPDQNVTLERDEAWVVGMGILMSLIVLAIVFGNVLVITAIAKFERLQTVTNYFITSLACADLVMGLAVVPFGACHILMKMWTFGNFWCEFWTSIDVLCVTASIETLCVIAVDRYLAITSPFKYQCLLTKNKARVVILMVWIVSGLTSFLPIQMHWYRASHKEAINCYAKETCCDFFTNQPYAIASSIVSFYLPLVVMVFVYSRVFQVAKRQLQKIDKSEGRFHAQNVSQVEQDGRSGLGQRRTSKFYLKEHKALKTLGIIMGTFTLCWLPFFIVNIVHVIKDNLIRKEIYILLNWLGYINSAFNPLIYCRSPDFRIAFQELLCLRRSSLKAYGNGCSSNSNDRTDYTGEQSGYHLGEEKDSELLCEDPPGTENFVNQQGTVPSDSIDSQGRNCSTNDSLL

Consider `CC(CCc1cc(F)cc2cc[nH]c12)N[C@@H]1CCn2c(=O)[nH]c3cccc(c32)[C@H]1O` (mixture of isomers) [Example 1a, 6-{[3-(5-Fluoro-1H-indol-7-yl)-1-methylpropyl]amino}-7-hydroxy-4,5,6,7-tetrahydroimidazo[4,5,1-jk][1]benzazepin-2(1H)-one], for which the EC50 was 0.5 nM in test [1] and 1.4 nM in test [2]. In the same order, the values of `CC(CCc1cc(F)cc2cc[nH]c12)N[C@@H]1CCn2c(=O)[nH]c3cccc(c32)[C@H]1O` (mixture of isomers) [Example 1b, 6-{[3-(5-Fluoro-1H-indol-7-yl)-1-methylpropyl]amino}-7-hydroxy-4,5,6,7-tetrahydroimidazo[4,5,1-jk][1]benzazepin-2(1H)-one] are 0.7 nM and 1 nM. In the case of `CC(CCc1ccc(C(=O)O)o1)N[C@@H]1CCn2c(=O)[nH]c3cccc(c32)[C@H]1O` (mixture of isomers) [Example 2, 5-(3-{[7-Hydroxy-2-oxo-1,2,4,5,6,7-hexahydroimidazo[4,5,1-jk][1]benzazepin-6-yl]amino}butyl)-2-furoic acid], the EC50 in test [1] is 171 nM; in test [2], 31 nM. Consider `Cc1[nH]c2ccccc2c1CCC(C)N[C@@H]1CCn2c(=O)[nH]c3cccc(c32)[C@H]1O` (mixture of isomers) [Example 3b, 7-Hydroxy-6-{[1-methyl-3-(2-methyl-1H-indol-3-yl)propyl]amino}-4,5,6,7-tetrahydroimidazo[4,5,1-jk][1]benzazepin-2(1H)-one], for which the EC50 came out at 5.5 nM in test [1] and 3 nM in test [2]. On to `C[C@@H](CCc1c[nH]c2ccccc12)N[C@@H]1CCn2c(=O)[nH]c3cccc(c32)[C@H]1O` (racemic) [Example 4c, 7-Hydroxy-6-{[3-(1H-indol-3-yl)-1-methylpropyl]amino}-4,5,6,7-tetrahydroimidazo[4,5,1-jk][1]benzazepin-2(1H)-one], for which the EC50 in test [1] amounted to 103 nM; in test [2], 143 nM. Take `CC(CCc1c[nH]c2ccc(F)cc12)N[C@@H]1CCn2c(=O)[nH]c3cccc(c32)[C@H]1O` (mixture of isomers) [Example 5b, Hydrochloride salt of 6-{[3-[5-Fluoro-1H-indol-3-yl]-1-methylpropyl]amino}-7-hydroxy-4,5,6,7-tetrahydroimidazo[4,5,1-jk][1]benzazepin-2(1)-one]: the EC50 in test [1] was determined as 1.1 nM; in test [2], 2.5 nM. On the same counts, the results for `CC(CCc1cccc(=O)[nH]1)N[C@@H]1CCn2c(=O)[nH]c3cccc(c32)[C@H]1O` (mixture of isomers) [Example 7a, 7-Hydroxy-6-{[1-methyl-3-(6-oxo-1,6-dihydropyridin-2-yl)propyl]amino}-4,5,6,7-tetrahydroimidazo[4,5,1-jk][1]benzazepin-2(1H)-one] are 4.6 nM and 5.5 nM. Turning to `CC(CCc1cccc(=O)[nH]1)N[C@@H]1CCn2c(=O)[nH]c3cccc(c32)[C@H]1O` (mixture of isomers) [Example 7c, 7-Hydroxy-6-{[1-methyl-3-(6-oxo-1,6-dihydropyridin-2-yl)propyl]amino}-4,5,6,7-tetrahydroimidazo[4,5,1-jk][1]benzazepin-2(1H)-one], the EC50 in test [1] came to 3.8 nM.

Regarding `CC(CC(C)(C)c1c[nH]c2ccccc12)N[C@@H]1CCn2c(=O)[nH]c3cccc(c32)[C@H]1O` (mixture of isomers) [Example 8, 7-Hydroxy-6-{[3-(1H-indol-3-yl)-1,3-dimethylbutyl]amino}-4,5,6,7-tetrahydroimidazo[4,5,1-jk][1]benzazepin-2(1H)-one], the concentration giving a half-maximal response (EC50) in test [1] amounted to 114 nM; in test [2], 6.1 nM. Consider `CC(CCc1cn(C)c2ccccc12)N[C@@H]1CCn2c(=O)[nH]c3cccc(c32)[C@H]1O` (mixture of isomers) [Example 14b, 7-Hydroxy-6-{[1-methyl-3-(1-methyl-1H-indol-3-yl)propyl]amino}-4,5,6,7-tetrahydroimidazo[4,5,1-jk][1]benzazepin-2(1H)-one], for which the EC50 in test [1] came to 8 nM; in test [2], 5.8 nM. For `CC(CCc1cn(C)c2ccccc12)N[C@@H]1CCn2c(=O)[nH]c3cccc(c32)[C@H]1O` (mixture of isomers) [Example 14c, 7-Hydroxy-6-{[1-methyl-3-(1-methyl-1H-indol-3-yl)propyl]amino}-4,5,6,7-tetrahydroimidazo[4,5,1-jk][1]benzazepin-2(1H)-one], the EC50 came to 5.5 nM in test [1] and 4.2 nM in test [2]. For `CC(CCc1c[nH]c2ccc(OCc3ccccc3)cc12)N[C@@H]1CCn2c(=O)[nH]c3cccc(c32)[C@H]1O` (mixture of isomers) [Example 17, 6-({3-[5-(Benzyloxy)-1H-indol-3-yl]-1-methylpropyl}amino)-7-hydroxy-4,5,6,7-tetrahydroimidazo[4,5,1-jk][1]benzazepin-2(1H)-one], the EC50 in test [1] was determined as 25 nM; in test [2], 33 nM.

As to `CC(CCc1cn(Cc2ccccc2)c2ccccc12)N[C@@H]1CCn2c(=O)[nH]c3cccc(c32)[C@H]1O` (mixture of isomers) [Example 18, 6-{[3-(1-Benzyl-1H-indol-3-yl)-1-methylpropyl]amino}-7-hydroxy-4,5,6,7-tetrahydroimidazo[4,5,1-jk][1]benzazepin-2(1H)-one], the EC50 is 218 nM in test [1] and 98 nM in test [2]. For `CC(CC(C)(C)c1cn(C)c2ccccc12)N[C@@H]1CCn2c(=O)[nH]c3cccc(c32)[C@H]1O` (mixture of isomers) [Example 20, 6-{[1,3-Dimethyl-3-(1-methyl-1H-indol-3-yl)butyl]amino}-7-hydroxy-4,5,6,7-tetrahydroimidazo[4,5,1-jk][1]benzazepin-2(1H)-one], the values for the EC50 in test [1] and in test [2] were 157 nM and 36 nM, respectively. `COc1ccc2[nH]cc(CCC(C)N[C@@H]3CCn4c(=O)[nH]c5cccc(c54)[C@H]3O)c2c1` (mixture of isomers) [Example 22, 7-hydroxy-6-{[3-(5-methoxy-1H-indol-3-yl)-1-methylpropyl]amino}-4,5,6,7-tetrahydroimidazo[4,5,1-jk][1]benzazepin-2(1H)-one]: the EC50 in test [1] is 50 nM; in test [2], 53 nM. With `CC(CCc1nccs1)N[C@@H]1CCn2c(=O)[nH]c3cccc(c32)[C@H]1O` (mixture of isomers) [Example 24b, 7-Hydroxy-6-{[1-methyl-3-(1,3-thiazol-2-yl)propyl]amino}-4,5,6,7-tetrahydroimidazo[4,5,1-jk][1]benzazepin-2(1H)-one], the results for the EC50 in test [1] and in test [2] were 92 nM and 79 nM, respectively. In the same order, the values of `CC(CCc1cnc(Cl)s1)N[C@@H]1CCn2c(=O)[nH]c3cccc(c32)[C@H]1O` (mixture of isomers) [Example 25, 6-{[3-(2-Chloro-1,3-thiazol-5-yl)-1-methylpropyl]amino}-7-hydroxy-4,5,6,7-tetrahydroimidazo[4,5,1-jk][1]benzazepin-2(1H)-one] are 2.9 nM and 4.2 nM. As to `CC(CCc1cscn1)N[C@@H]1CCn2c(=O)[nH]c3cccc(c32)[C@H]1O` (mixture of isomers) [Example 26, 7-Hydroxy-6-{[1-methyl-3-(1,3-thiazol-4-yl)propyl]amino}-4,5,6,7-tetrahydroimidazo[4,5,1-jk][1]benzazepin-2(1H)-one], the EC50 is 345 nM in test [1] and 742 nM in test [2]. `CC(CCn1cnc2cc(F)cc(F)c21)N[C@@H]1CCn2c(=O)[nH]c3cccc(c32)[C@H]1O` (single isomer, unassigned) [Example 69]: the EC50 in test [2] was determined as 0.4 nM. Same read-out and setting: the figure for `Cc1nnsc1CCC(C)N[C@@H]1CCn2c(=O)[nH]c3cccc(c32)[C@H]1O` (single isomer, unassigned) [Example 70] is 3.3 nM. `CC(CCn1cnnc1)N[C@@H]1CCn2c(=O)[nH]c3cccc(c32)[C@H]1O` (single isomer, unassigned) [Example 71]: the EC50 in test [2] was found to be 15.1 nM. The same measure, in the same setting: the figure for `CC(CCc1cncnc1)N[C@@H]1CCn2c(=O)[nH]c3cccc(c32)[C@H]1O` (single isomer, unassigned) [Example 72] is 2.7 nM.

For the compound `COc1cncc(CCC(C)N[C@@H]2CCn3c(=O)[nH]c4cccc(c43)[C@H]2O)c1` (single isomer, unassigned) [Example 73], the EC50 in test [2] is 0.8 nM. On the same count and under the same terms, the figure for `CC(CCc1cnc(O)s1)N[C@@H]1CCn2c(=O)[nH]c3cccc(c32)[C@H]1O` (single isomer, unassigned) [Example 74] is 4.7 nM. Same read-out and setting: the figure for `CC(CCn1nnc2ccccc21)N[C@@H]1CCn2c(=O)[nH]c3cccc(c32)[C@H]1O` (single isomer, unassigned) [Example 75] is 4.7 nM; for `CC(CCn1cnc2cnccc21)N[C@@H]1CCn2c(=O)[nH]c3cccc(c32)[C@H]1O` (single isomer, unassigned) [Example 76] it is 2 nM.

In the case of `CC(CCn1cnc2ncccc21)N[C@@H]1CCn2c(=O)[nH]c3cccc(c32)[C@H]1O` (single isomer, unassigned) [Example 77], the EC50 in test [2] turned out to be 2.8 nM. On to `Cc1nc2ccccc2n1CCC(C)N[C@@H]1CCn2c(=O)[nH]c3cccc(c32)[C@H]1O` (single isomer, unassigned) [Example 78], for which the EC50 in test [2] was found to be 1.2 nM. As for `CC(CCn1cnc2cc(F)c(F)cc21)N[C@@H]1CCn2c(=O)[nH]c3cccc(c32)[C@H]1O` (single isomer, unassigned) [Example 79], in test [2], the EC50 came to 1 nM. Regarding `CC(Cc1c[nH]c2ccccc12)N[C@@H]1CCn2c(=O)[nH]c3cccc(c32)[C@H]1O` (stereo partly drawn) [Example 68, (6R,7R)-7-hydroxy-6-{[2-(1H-indol-3-yl)-1-methylethyl]amino}-4,5,6,7-tetrahydroimidazo[4,5,1-jk][1]benzazepin-2(1H)-one], the EC50 in test [2] stood at 4.9 nM.

As a reminder, the EC50 is the concentration giving half of the maximal effect.

Values taken from patent publication US20080267942A1, “BENZAZEPIN-2(1H)-ONE DERIVATIVES” (Pfizer Limited, priority 2006, published 2008).
